16 compounds from patent US20250011272A1, “LONG-CHAIN COMPOUND THAT ACTS ON ACLY, PREPARATION METHOD THEREFOR AND USE THEREOF” (SHANGHAIINSTITUTE OF MATERIA MEDICA, CHINESE ACADEMY OF …, priority 2021, published 2025) can be followed below.

Where two headings read alike, the source gives them in different places.

The target in experiment [1] is Human ACLY (Homo sapiens (Human), UniProt P53396). Nature of the experiment: ACLY enzyme activity test (ADP-Glo luminescence). The format is biochemical. As to conditions: 37° C., 30 minutes. An excerpt:
• Instrument: Envision (PerkinElmer, USA) • Materials: Acl—human ACLY/acly/ATP citrate lyase protein (His tag) was purchased from Sino Biological; kinase assay kit ADP-GLO (promega #V9102).
Experimental principle: In this experiment, the ATP-dependent citrate lyase ACL catalyzes the conversion of citrate to acetyl coenzyme A, which in turn produces malonyl coenzyme A, a precursor molecule for fatty acid synthesis, and this reaction is accompanied by ATP depletion, so the change in ATP can be detected using the ADP-Glo Kinase Assay (#V9102) to indirectly reflect the inhibitory effect of the compound on the enzymatic activity of ACL. This kinase detection kit can quantitatively determine the amount of ADP catalyzed by ACLY enzyme activity. (First, the compound, the enzyme and the substrate are incubated at 37 degrees for half an hour, ADP-Glo& #V9102; reagent is added and incubated for half an hour to terminate the reaction and consume the remaining ATP; then the kinase detection reagent is added (which converts the ADP to ATP while also detecting the newly synthesized ATP using the coupled […] reaction) and incubated for half an hour. The value is read by using Envision.
Experimental method: ADP Glo luminescence method was used for determination. It reflects the activity of ACLY enzyme by quantitatively detecting the amount of ADP, and the enzymatic reaction catalyzed by ACLY is proportional to the amount of ADP detected by the luminescent signal. Firstly, the compound is diluted with 10% DMSO, and then […] of compound dilution is added to a 5 μl reaction system, so that the final reaction system has a DMSO content of 2%. The enzymatic reaction catalyzed by ACLY was carried out at 37° C. for 30 minutes. 5 μl reaction mixture contained the following components: 40 mM Tris, pH 8.0, 10 mM MgCl2, 5 mM DTT, ATP, CoA, sodium citrate, and ACLY. After the enzymatic reaction was complete, 2.5 μl of ADP Glo reagent was added to each reaction system and incubated at room temperature for 1 hour. Afterwards, 5 μl of kinase detection reagent was added and incubated at room temperature for 30 minutes. The luminous signal was detected using Envision (PerkinElmer, USA).
Data processing: For compound, the activity dose dependent relationship was tested. IC50 value was obtained by non-linear fitting of sample concentration based on sample activity. The software used for calculation was Graphpad Prism 7, and the model used for fitting was sigmoid dose response (variable slope). For most inhibitor screening models, the bottom and top of the fitting curve were set to 0 and 100. In general, each sample is set with multiple wells (n≥2) during testing, which are represented in the results as Standard Deviation (SD) or Standard Error (SE).

Experiment [2] deals with pancreatic cancer cell line ASPC-1. Nature of the experiment: MTS cell proliferation assay, ASPC-1. As to conditions: ASPC-1, MTS, read-out: IC50, inhibition of proliferation, ASPC-1. In kind it is cell-based. An excerpt: (§1) Experimental principle: CellTier 96 ® AQueous One Solution Cell Proliferation Assay (MTS) colorimetric method was used to detect cell proliferation. This analysis method is based on the tetrazole compound (3-(4,5-dimethylthiazol-2-yl)-5-(3-carboxymethoxyphenyl)-2-(4-sulfophenyl)-2H-tetrazolium, internal salt; MTS). The conversion of yellow MTS to blue purple water-soluble formazan is catalyzed by dehydrogenase, which exists in living cells with metabolic activity; Dead cells cannot complete the transformation from MTS to formamide. The amount of formazan determined by absorbance at 490 nm is directly proportional to the number of live cells in culture.
(§2) Sample processing: Dissolve the sample in DMSO and store it at low temperature.
(§3) Cell survival rate was detected by using MTS method, that is, adherent cells growing in logarithmic phase were digested with 0.025% trypsin, and counted; 80 μl cells were inoculated into a 96 well plate at a density of 3000 cells/well for A549 and 5000 cells/well for H358 (all cultured under 1% FBS conditions), and grown overnight in a 5% CO2 and 37° C. incubator. Each compound was diluted with a three-fold concentration gradient, eight concentrations were tested, and three wells were set for each concentration. 20 μl of the diluted compounds was added to the corresponding cell wells. Adherent cells A549 and H358 were cultured in a 5% CO2 and 37° C. incubator for 72 hours; 20 μl of MTS was added separately and incubated for 2 hours in a 5% CO2 and 37° C. incubator. Molecular Device VersaMax was used to test the light absorption value at 490 nm (L1), with a reference wavelength of 690 nm (L2). The (L1−L2) values were plotted against different concentrations of inhibitors and IC50 was obtained by fitting the formula.
(§4) The experimental results were fitted to the IC50 using Graphpad Prism 7. The model used for fitting was log(inhibitor) vs Response—variable slop, and the results of each assay were equipped with triple replicate wells to ensure the accuracy of the experiment. The results were expressed as Standard Deviation (SD) or Standard Error (SE).
(§5) Similarly, the antiproliferative assays of the compounds on pancreatic cancer cell line ASPC-1, human pancreatic cancer cell MIA-PACA and breast cancer cell MCF-7 were performed as above.

Experiment [3] relates to A549 cells. Nature of the experiment: MTS cell proliferation assay, A549. The following applies: Homo sapiens, A549, 72 hours, 1% FBS, read-out: IC50, inhibition of proliferation, A549. In kind it is cell-based. The text has this:
(§6) Experimental materials: NCI-H358 cells (H358, human non-small cell lung cancer cells) were purchased from the cell bank/stem cell bank of the Chinese Academy of Sciences; RPMI-1640 culture medium (GIBCO, product number 3180002), and human tumor cell non-small cell lung cancer cell A549 were gifted by the research group of researcher Li Jia from SHANGHAI INSTITUTE OF MATERIA MEDICA, CHINESE ACADEMY OF SCIENCES. CellTier 96® The Aquarius One Solution Cell Promotion Assay (MTS) was purchased from Promega #G3581.
Experimental principle: CellTier 96 ® AQueous One Solution Cell Proliferation Assay (MTS) colorimetric method was used to detect cell proliferation. […] The amount of formazan determined by absorbance at 490 nm is directly proportional to the number of live cells in culture. […]
Cell survival rate was detected by using MTS method, that is, adherent cells growing in logarithmic phase were digested with 0.025% trypsin, and counted; 80 μl cells were inoculated into a 96 well plate at a density of 3000 cells/well for A549 and 5000 cells/well for H358 (all cultured under 1% FBS conditions), and grown overnight in a 5% CO2 and 37° C. incubator. […]
The experimental results were fitted to the IC50 using Graphpad Prism 7. […] The results were expressed as Standard Deviation (SD) or Standard Error (SE).

For experiment [4], the system named is NCI-H358 cells. Nature of the experiment: MTS cell proliferation assay, H358. In kind it is cell-based, human. As to conditions: 1% FBS, read-out: IC50, inhibition of proliferation, H358.
Text: as §6, §1, §2, §3, §4

For experiment [5], the system named is human pancreatic cancer cell MIA-PACA. Nature of the experiment: MTS cell proliferation assay, MIA-PACA. The format is cell-based.
Text: as §1, §2, §3, §4, §5

For experiment [6], the system named is breast cancer cell MCF-7. Nature of the experiment: MTS cell proliferation assay, MCF-7. The format is cell-based. As to conditions: MCF-7, MTS, read-out: IC50, inhibition of proliferation, MCF-7.
Text: as §1, §2, §3, §4, §5

Sequence of Human ACLY (P53396 whole entry): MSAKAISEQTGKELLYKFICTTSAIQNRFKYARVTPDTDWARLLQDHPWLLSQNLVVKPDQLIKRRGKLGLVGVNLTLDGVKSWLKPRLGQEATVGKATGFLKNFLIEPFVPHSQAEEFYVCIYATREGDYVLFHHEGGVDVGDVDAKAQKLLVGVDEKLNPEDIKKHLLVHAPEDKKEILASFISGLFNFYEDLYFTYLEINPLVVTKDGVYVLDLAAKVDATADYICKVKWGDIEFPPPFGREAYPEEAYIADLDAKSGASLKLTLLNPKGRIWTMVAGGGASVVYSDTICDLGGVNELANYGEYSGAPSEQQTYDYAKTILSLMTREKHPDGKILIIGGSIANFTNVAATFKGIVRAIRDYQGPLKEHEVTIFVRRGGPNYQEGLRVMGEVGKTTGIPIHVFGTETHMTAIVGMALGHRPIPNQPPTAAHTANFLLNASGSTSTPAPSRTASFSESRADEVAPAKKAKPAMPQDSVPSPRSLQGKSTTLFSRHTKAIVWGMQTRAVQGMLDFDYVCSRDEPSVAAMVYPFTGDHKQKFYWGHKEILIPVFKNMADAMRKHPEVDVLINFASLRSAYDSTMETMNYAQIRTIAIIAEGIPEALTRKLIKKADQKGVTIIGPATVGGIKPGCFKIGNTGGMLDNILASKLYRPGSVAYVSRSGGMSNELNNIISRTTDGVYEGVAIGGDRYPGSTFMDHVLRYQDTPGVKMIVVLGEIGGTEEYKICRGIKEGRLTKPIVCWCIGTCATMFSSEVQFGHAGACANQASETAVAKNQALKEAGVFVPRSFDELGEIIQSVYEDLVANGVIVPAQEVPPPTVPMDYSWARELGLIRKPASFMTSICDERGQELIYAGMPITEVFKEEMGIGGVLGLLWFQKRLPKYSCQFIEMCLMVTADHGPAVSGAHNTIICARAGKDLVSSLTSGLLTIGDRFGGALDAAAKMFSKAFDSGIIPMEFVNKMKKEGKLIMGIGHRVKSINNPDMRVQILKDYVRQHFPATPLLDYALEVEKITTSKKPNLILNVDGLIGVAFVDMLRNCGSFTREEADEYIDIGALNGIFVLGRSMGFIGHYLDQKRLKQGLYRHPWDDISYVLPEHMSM

For `CC(CCCCCCC=CCCCCCCC(C)(C(=O)O)c1ccccc1)(C(=O)O)c1ccccc1` (stereo not shown) [Compound M1], the IC50 in experiment [1] amounted to 1.7 ± 0.3 µM. For `O=C(O)C1(CCCCCC/C=C\CCCCCCC2(C(=O)O)CC=CC2)CC=CC1` [Compound M2], in experiment [1], the IC50 is 2.9 ± 0.95 µM. Same read-out and setting: for `O=C(O)C1(CCCCCC/C=C\CCCCCCCC2(C(=O)O)CC=CC2)CC=CC1` [Compound M3] the value was 1 ± 0.13 µM; for `O=C(O)C1(CCCCCC/C=C\CCCCCCC2(C(=O)O)CCCC2)CCCC1` [Compound M4], 22.6 ± 2.7 µM. As for `O=C(O)C1(CCCCCC/C=C\CCCCCCC2(C(=O)O)C=CCC2)C=CCC1` (stereo not shown) [Compound M5], the IC50 in experiment [2] (Homo sapiens, ASPC1) stood at 27.3 ± 0.8 µM; in experiment [3] it was 12.5 ± 1.2 µM; in experiment [4] (Homo sapiens, NCI-H358, H358, 72 hours), 23.6 ± 1.9 µM; in experiment [1] it was 1.5 ± 0.45 µM; in experiment [5] (Homo sapiens, MIA PaCa-2, read-out: IC50, inhibition of proliferation, MIA-PACA), 13.5 ± 18 µM; in experiment [6] (Homo sapiens, MCF7), 31.8 ± 1.7 µM.

For `O=C(O)C1(CCCCCC/C=C\CCCCCCC2(C(=O)O)CC=CCC2)CC=CCC1` (stereo not shown) [Compound M6], the IC50 in experiment [1] amounted to 5.3 ± 0.98 µM. Turning to `C=CC(C)(CCCCCC/C=C\CCCCCCC(C)(C=C)C(=O)O)C(=O)O` (stereo not shown) [Compound M7], in experiment [1], the IC50 was 4.1 ± 1.7 µM.

`CC(CCCC/C=C\CCCCCC(C)(C(=O)O)c1ccccc1)(C(=O)O)c1ccccc1` (stereo not shown) [Compound M9]: in experiment [1], the IC50 turned out to be 11.2 ± 1.61 µM.

As for `C=CC(C)(CCCCCC/C=C\CCCCCCCC(C)(C=C)C(=O)O)C(=O)O` (stereo not shown) [Compound M10], the IC50 in experiment [1] stood at 1.9 ± 0.2 µM. Same read-out and setting: for `CC(CCCCCC/C=C\CCCCCCCC(C)(C(=O)O)c1ccccc1)(C(=O)O)c1ccccc1` (stereo not shown) [Compound M11] the value was 1.9 ± 0.31 µM; for `O=C(O)C1(CCCCCC/C=C\CCCCCCCC2(C(=O)O)CC=CCC2)CC=CCC1` (stereo not shown) [Compound M12], 3.9 ± 0.2 µM; for `O=C(O)C1(CCCCCC/C=C\CCCCCCCC2(C(=O)O)C=CCC2)C=CCC1` (stereo not shown) [Compound M13], 2.7 ± 0.8 µM.

`O=C(O)C1(CCCCC/C=C\CCCCCCC2(C(=O)O)C=CCC2)C=CCC1` (stereo not shown) [Compound M14] returned an IC50 in experiment [1] of 7 ± 0.16 µM.

Regarding `CC(CCCC/C=C/CCCCCC(C)(C(=O)O)c1ccccc1)(C(=O)O)c1ccccc1` (stereo not shown) [Compound M15], the IC50 in experiment [1] turned out to be 52.2 ± 0.27 µM. `O=C(O)C1(CCCCCCC=CCCCCCCC2(C(=O)OCCc3ccc(Cl)cc3Cl)C=CCC2)C=CCC1` (stereo not shown) [Compound M19]: the IC50 in experiment [2] was found to be 2.7 ± 1 µM; in experiment [4] (H358, 72 hours) it was 3.5 ± 0.4 µM; in experiment [1], 3.1 ± 1.3 µM; in experiment [5] (read-out: IC50, inhibition of proliferation, MIA-PACA) it was 1.9 ± 0.5 µM; in experiment [6] it was 3.9 ± 0.5 µM. As to `CCOC(=O)C1(CCCCCC/C=C\CCCCCCC2(C(=O)O)C=CCC2)C=CCC1` (stereo not shown) [Compound M20], the IC50 in experiment [1] came out at 3.5 ± 1.7 µM.
